The first experiment deals with IgE-Tb / sFcεRIα-Y131A-AF488 (Homo sapiens, UniProt P01854, N146Q/N252Q). As to the kind of experiment: IgE-Tb / sFcεRIα-Y131A-AF488 FRET assay (protocol for examples 234 to 501). Format: binding. Conditions: examples 234 to 501: compound with IgE-Tb 30 minutes before sFcεRIα-Y131A-AF488, incubated 18 hours at room temperature; read-out: Y131A FRET IC50 range. The procedure, abridged: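 Compounds (10-point 3-fold series, top usually 10 μM, 2% DMSO) preincubated 30 min with 5 nM IgE-Tb, then 25 nM sFcεRIα-Y131A-AF488 added; 18 h at room temperature in the dark. TR-FRET ratio 520/490 nm after 337 nm excitation, background-subtracted; IC50 by four-parameter logistic fit.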
IgE-Tb / FcεRIα-Y131A-AF488, sequence (P01854 1-427 limits assumed, stated change not applied): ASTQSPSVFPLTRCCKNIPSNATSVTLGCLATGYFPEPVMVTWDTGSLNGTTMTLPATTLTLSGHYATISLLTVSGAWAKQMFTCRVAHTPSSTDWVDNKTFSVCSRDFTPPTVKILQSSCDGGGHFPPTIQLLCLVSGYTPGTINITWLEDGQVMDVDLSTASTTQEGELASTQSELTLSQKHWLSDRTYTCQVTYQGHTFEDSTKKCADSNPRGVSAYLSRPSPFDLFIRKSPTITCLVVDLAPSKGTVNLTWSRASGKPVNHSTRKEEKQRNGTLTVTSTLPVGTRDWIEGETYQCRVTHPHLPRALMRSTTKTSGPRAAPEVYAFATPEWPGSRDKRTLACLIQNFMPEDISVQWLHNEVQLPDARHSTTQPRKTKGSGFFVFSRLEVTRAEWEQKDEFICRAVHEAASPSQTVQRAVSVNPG
IgE-Tb / sFcεRIα-Y131A-AF488, sequence (P01854 whole entry N146Q/N252Q): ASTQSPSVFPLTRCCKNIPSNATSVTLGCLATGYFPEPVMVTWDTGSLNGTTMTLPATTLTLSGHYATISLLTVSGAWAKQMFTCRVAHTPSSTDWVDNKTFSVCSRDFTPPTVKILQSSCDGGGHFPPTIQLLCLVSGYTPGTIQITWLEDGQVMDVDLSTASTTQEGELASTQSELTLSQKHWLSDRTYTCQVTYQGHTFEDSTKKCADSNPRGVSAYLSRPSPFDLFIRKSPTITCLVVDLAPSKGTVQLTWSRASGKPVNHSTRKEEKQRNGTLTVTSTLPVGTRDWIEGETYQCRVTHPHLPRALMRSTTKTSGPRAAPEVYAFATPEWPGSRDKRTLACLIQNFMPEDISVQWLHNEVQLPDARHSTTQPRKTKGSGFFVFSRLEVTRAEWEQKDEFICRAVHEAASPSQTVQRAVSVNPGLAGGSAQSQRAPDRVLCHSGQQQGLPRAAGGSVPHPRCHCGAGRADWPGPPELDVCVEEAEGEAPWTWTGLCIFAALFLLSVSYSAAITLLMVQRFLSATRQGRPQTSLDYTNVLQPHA
The IC50 is the concentration at which inhibition is half-maximal. As to `Cn1nc(OC(F)F)cc1Nc1nncn1[C@H]1CCc2sc(NC(=O)C3CC(F)(F)C3)c(C(=O)NC[C@@H]3C[C@@H]3F)c2C1` [Example 490, (5S)-2-[(3,3-difluorocyclobutanecarbonyl)amino]-5-[3-[[5-(difluoromethoxy)-2-methylpyrazol-3-yl]amino]-1,2,4-triazol-4-yl]-N-[[(1S,2S)-2-fluorocyclopropyl]methyl]-4,5,6,7-tetrahydro-1-benzothiophene-3-carboxamide], the IC50 is below 1 µM.

For the compound `Cn1nc(OC(F)F)cc1Nc1nncn1[C@H]1CCc2sc(NC(=O)C3CC(F)(F)C3)c(C(=O)NC[C@H]3C[C@H]3F)c2C1` [Example 491, (5S)-2-[(3,3-difluorocyclobutanecarbonyl)amino]-5-[3-[[5-(difluoromethoxy)-2-methylpyrazol-3-yl]amino]-1,2,4-triazol-4-yl]-N-[[(1R,2R)-2-fluorocyclopropyl]methyl]-4,5,6,7-tetrahydro-1-benzothiophene-3-carboxamide], the IC50 is below 1 µM.

Turning to `Cn1nc(OC(F)F)cc1Nc1nncn1[C@H]1CCc2sc(NC(=O)C3CC(F)(F)C3)c(C(=O)N[C@H]3C[C@H](F)C3)c2C1` [Example 492, (5S)-2-[(3,3-difluorocyclobutanecarbonyl)amino]-5-[3-[[5-(difluoromethoxy)-2-methylpyrazol-3-yl]amino]-1,2,4-triazol-4-yl]-N-(trans-3-fluorocyclobutyl)-4,5,6,7-tetrahydro-1-benzothiophene-3-carboxamide], the half-maximal inhibitory concentration (IC50) is below 1 µM.

`Cn1nc(C(F)F)cc1Nc1nncn1[C@H]1CCc2sc(NC(=O)C3CC3)c(C(=O)N[C@@H]3CC34CC4)c2C1` [Example 496, (5S)-2-(cyclopropanecarbonylamino)-5-[3-[[5-(difluoromethyl)-2-methyl-pyrazol-3-yl]amino]-1,2,4-triazol-4-yl]-N-[(2R)-spiro[2.2]pentan-2-yl]-4,5,6,7-tetrahydrobenzothiophene-3-carboxamide]: the IC50 is below 1 µM.

As for `Cc1cc(Nc2nncn2[C@H]2CCc3sc(NC(=O)C4CC45CC5)c(C(=O)NCC4CC4)c3C2)n(C)n1` (stereo partly drawn) [Example 499, (5S)—N-(cyclopropylmethyl)-5-[3-[(2,5-dimethylpyrazol-3-yl)amino]-1,2,4-triazol-4-yl]-2-(spiro[2.2]pentane-2-carbonylamino)-4,5,6,7-tetrahydrobenzothiophene-3-carboxamide], the IC50 is below 1 µM.

Another experiment addresses IgE-Tb / FcεRIα-Y131A-AF488 (Homo sapiens, UniProt P01854). Nature of the experiment: IgE-Tb / FcεRIα-Y131A-AF488 FRET assay (protocol for examples 1 to 233). It is filed as binding. As to conditions: examples 1 to 233: 5 nM IgE-Tb, 25 nM FcεRIα-Y131A-AF488, incubated 2 hours at room temperature; read-out: Y131A FRET IC50 range. The procedure:
For examples 1 to 233, the assay was conducted according to the following: Each assay reaction was conducted in a volume of 25 μl in a 384-well half-volume plate. 10 point compound serial dilutions (3-fold) were generated in DMSO at a concentration of ×50 that of the final assay concentration (FAC). Compound solutions were then prepared by IgE-Tb diluting 10-fold in assay buffer. For the assay, 5 μl of diluted compound was added to 10 μl of, followed by addition of 10 μl FcεRIα-Y131A-AF488. FRET reagents FACs were 5 nM IgE-Tb, 25 nM FcεRIα-Y131A-AF488. Usually the top FAC of compound in the assay was 10 μM. The final DMSO concentration was 2%. The minimum signal (MIN) was measured by adding 5l unlabelled FcεRIα at 1 μM (FAC=200 nM) to the FRET reagents. The maximum FRET signal (MAX) was measured in wells containing FRET reagents but no compound. The assay was incubated for 2 hours at room temperature, protected from light and evaporation, and with gentle agitation.
Measurement of FRET for each well was carried out by exciting at 330 nm and measuring emission at 495/520 nm using an Envision plate reader (Perkin Elmer). FRET ratio was calculated as follows: Emission at 520/Emission at 495×1000.
The FRET ratio was used for the data analysis.
Z′ was calculated as follows (σ=standard deviation and μ=mean): 1−((3×σMAX)+(3×σMIN))/(μMAX−μMIN)
Z′ above 0.5 was considered a good assay.
Background signal (MIN) was subtracted from all wells. Using the background subtracted values, the percent inhibition by compound in each test-well was calculated as follows: 100−Test-well FRET ratio/MAX FRET ratio×100.
Percent inhibition was plotted against compound concentration. IC50 values for each compound were determined using four parameter logistic fit model using the XLFIT5 software package.
For the compound `CNC(=O)c1c(NC(=O)C2CC2C)sc2c1CCCC2` (mixture of isomers) [Example 102, N-Methyl-2-[(2-methylcyclopropanecarbonyl)amino]-4,5,6,7-tetrahydrobenzothiophene-3-carboxamide], the IC50 was in the range of 10 to 50 µM.

Consider `C[S+]([O-])NC1CCc2sc(NC(=O)C3CC3)c(C(=O)NCC3CC3)c2C1` (mixture of isomers) [Example 199, 2-(Cyclopropanecarbonylamino)-N-(cyclopropylmethyl)-5-(methanesulfinamido)-4,5,6,7-tetrahydrobenzothiophene-3-carboxamide], for which the IC50 was in the range of 1 to 10 µM.

Regarding `C[C@@H]1CCc2sc(NC(=O)C3CC3)c(C(=O)NCC3CC3)c21` (single isomer, unassigned) [Example 13], the IC50 is 1 to 10 µM.

`C[C@H]1CCc2sc(NC(=O)C3CC3)c(C(=O)NCC3CC3)c21` (single isomer, unassigned) [Example 14]: the IC50 is 10 to 50 µM.

Take `CC1CC1C(=O)Nc1sc2c(c1C(=O)NCC1CC1)CCCC2` (single isomer, unassigned) [Example 90, N-(cyclopropylmethyl)-2-[(2-methylcyclopropanecarbonyl)amino]-4,5,6,7-tetrahydrobenzothiophene-3-carboxamide]: the IC50 lay in the range of 1 to 10 µM.

`O=C(Nc1sc2c(c1C(=O)N1CCC3(CC3)C1)CC(n1cnnc1Nc1cccnc1)CC2)C1CC1` (single isomer, unassigned) [Example 128]: the IC50 is below 1 µM.

`O=C(Nc1sc2c(c1C(=O)N1CCC3(CC3)C1)CC(n1cnnc1Nc1cccnc1)CC2)C1CC1` (single isomer, unassigned) [Example 129]: the IC50 is 1 to 10 µM.

For the compound `CCc1c(N[C@@H]2CCc3sc(NC(=O)C4CC4)c(C(=O)NCC4CC4)c3C2)c(=O)c1=O` (single isomer, unassigned) [Example 189], the IC50 is below 1 µM.

With `CCc1c(N[C@H]2CCc3sc(NC(=O)C4CC4)c(C(=O)NCC4CC4)c3C2)c(=O)c1=O` (single isomer, unassigned) [Example 190], the IC50 is below 1 µM.

`CC(C)(C)CNc1nncn1C1CCc2sc(NC(=O)C3CC3)c(C(=O)NCC3CC3)c2C1` (stereo in doubt) [Example 105, (5S)-2-(Cyclopropanecarbonylamino)-N-(cyclopropylmethyl)-5-[3-(2,2-dimethylpropylamino)-1,2,4-triazol-4-yl]-4,5,6,7-tetrahydrobenzothiophene-3-carboxamide]: the half-maximal inhibitory concentration (IC50) is below 1 µM.

For `CC(C)CNc1nncn1C1CCc2sc(NC(=O)C3CC3)c(C(=O)NCC3CC3)c2C1` (stereo in doubt) [Example 111, (5S)-2-(Cyclopropanecarbonylamino)-N-(cyclopropylmethyl)-5-[3-(isobutylamino)-1,2,4-triazol-4-yl]-4,5,6,7-tetrahydrobenzothiophene-3-carboxamide], the IC50 was below 1 µM.

As to `Cc1cncc(Nc2nncn2C2CCc3sc(NC(=O)C4CC4)c(C(=O)NCC4CC4)c3C2)c1` (stereo in doubt) [Example 114, (5S)-2-(cyclopropanecarbonylamino)-N-(cyclopropylmethyl)-5-[3-[(5-methyl-3-pyridyl)amino]-1,2,4-triazol-4-yl]-4,5,6,7-tetrahydrobenzothiophene-3-carboxamide], the IC50 was below 1 µM.

For `O=C(NCC1CC1)c1c(NC(=O)C2CC2)sc2c1CC(n1cnnc1NCCN1CCOCC1)CC2` (stereo in doubt) [Example 118, (5S)-2-(Cyclopropanecarbonylamino)-N-(cyclopropylmethyl)-5-[3-(2-morpholinoethylamino)-1,2,4-triazol-4-yl]-4,5,6,7-tetrahydrobenzothiophene-3-carboxamide], the IC50 is below 1 µM.

For the compound `CC(C)(C)OC(=O)Nc1cnnn1[C@H]1CCc2sc(NC(=O)C3CC3)c(C(=O)NCC3CC3)c2C1` (stereo in doubt) [Example 140, tert-Butyl N-[3-[2-(cyclopropanecarbonylamino)-3-(cyclopropylmethylcarbamoyl)-4,5,6,7-tetrahydrobenzothiophen-5-yl]triazol-4-yl]carbamate], the half-inhibitory concentration (IC50) was below 1 µM.

As for `Cc1cnc(Nc2nncn2C2CCc3sc(NC(=O)C4CC4)c(C(=O)NCC4CC4)c3C2)c(C)n1` (stereo in doubt) [Example 178, (5S)-2-(Cyclopropanecarbonylamino)-N-(cyclopropylmethyl)-5-[3-[(3,5-dimethylpyrazin-2-yl)amino]-1,2,4-triazol-4-yl]-4,5,6,7-tetrahydrobenzothiophene-3-carboxamide], the IC50 is below 1 µM.

Consider `CNC(=O)c1c(NC(=O)C2CC2)sc2c1CCSC2` [Example 1, 2-(Cyclopropanecarbonylamino)-N-methyl-5,7-dihydro-4H-thieno[2,3-c]thiopyran-3-carboxamide], for which the half-maximal inhibitory concentration (IC50) fell in the range of 1 to 10 µM.

As for `CNC(=O)c1c(NC(=O)C2CC2)sc2c1CCCO2` [Example 2, 6-(Cyclopropanecarbonylamino)-N-methyl-3,4-dihydro-2H-thieno[2,3-b]pyran-5-carboxamide], the IC50 lay within 10 to 50 µM.

The values are drawn from US12018021B2 (UCB Biopharma SRL, priority 2018, dated 2024).
